Test results published in US20030216569A1, “Method of making HIV protease inhibitors” (priority 1993, published 2003).
Several values for one entry are separate records, joined by “and”; a condition that tells them apart may be missing. Equal values may be shown once. Read-outs that look alike come from different tables or passages of the source.

Experiments:
HIV-1 protease = HIV-1 protease (Human immunodeficiency virus type 1 group M subtype B, UniProt P04585); test: Fluorescence HIV-1 Protease Inhibitor Assay (Pandex); format: biochemical; parameters: made in house; host or cells: E. coli K12 L507/pHP10D (NRRL B-18560)
[1] = tested on: Viral SN123 infected CEM cells; conditions: Human immunodeficiency virus 1, CCRF-CEM, values in parentheses are 35B in same assay; for IC50: read-out: Whole cell IC50 nM, CEM cells; for IC90: read-out: Whole cell IC90 nM, CEM cells
Experimental: Purpose: To determine IC50 CC50 for compounds:
Media A [1% DMSO] (100 microliters DMSO+9.9 ml media A)
CEM cells @ [1×10^4] cells/ml (4 plate=40 ml) (6 plate=60 ml)
(need 70 microliters of each)
A-D at [10 mM] in 100% DMSO
4 or 6 u-bottom 96-well plates
4 flat bottom 96-well plates for dilutions
8-10 boxes of sterile costar tips
Approximately 10 reagent trays
1000 cells/well=1×10^4 cells/ml=1000 cells/100 microliters 200 microliters=total volume in a well
Cell Preparation and Plating of Cells, Media A and Media A (1% DMSO)
a. Number a 96-well tissue culture plate for each compound tested, one for a control plate, and one for the control compound.
b. Count cells on hemacytometer and resuspend them in 40 ml or 80 ml of Media A at a concentration of [1×10^4]0 cells/ml.
Counting Cells on a Hemacytomer:
Label two 1.8 ml nuc tubes 1 and 2.
Put 0.5 ml of well mixed CEM cells (in growth phase) in tube 1.
Put 50 micoliters PBS and 40 microliters of trypan blue into tube 2.
Mix up the cells in tube 1 then remove 10 microliters of cells and put them into tube 2.
Mix well in tube 2, then remove 10 microliters of the stained cells and put them on the hemacytometer.
Count the number of cells in the center square of the hemacytometer with the microscope set on 10×.
The concentration of the stock CEM's in cells/ml is as follows:
Cells counted×1×10^5=Concentration of CEM's in [cells/ml].
c. Add 200 microliters Media A to: A1 of places 2-6. These are Blanks. A4-H4 of plate 1. These are Blanks.
d. Add 5 microlicers Media A to all wells of Rows A-D of plates 2-6 except A1 (the top half of each plate).
e. Add 50 microliters of Media A to wells A1-D3 of Plate 1 (the top half of the plate).
f. Add 50 microliters Media A[l% DMSO] to all wells of Columns 1-3 of plate 1.
This puts 1000 cells/well.
h. Put plates in an incubator while doing drug dilutions.
Preparation Control and Test Drugs
(1) Put 60 microliters of DMSO into all wells of Columns 2-12, Rows A-E.
(3) Put 70 microliters of A [10 mM] at 100% DMSO into well B1.
(4) Put 70 microliters of B [10 mM] at 100% DMSO into well C1.
(5) Put 70 microliters of C [10 mM] at 100% DMSO into well D1.
(6) Put 70 microliters of D [10 mM] at 100% DMSO into well E1.
Change tips before each dilution.
(1) In rows A-E of another plate make a row for the first 1:10 dilution to correspond to each compound's 100% DMSO row.
A into Row B for the first 1:10 dilution.
B into Row C for the first 1:10 dilution.
C into Row D for the first 1:10 dilution.
D into Row E for the first 1:10 dilution.
(2) Put 180 microliters of media A into all wells of rows A-E corresponding to the 100% DMSO rows. 2.5 ml needed per row.
(3) Remove 20 microliters from all wells of each row of the 100% DMSO rows and transfer it to the corresponding 1:10 row.
(1) Make a plate for every 3 compounds to be tested.
Use 20 ml of media A per plate.
(3) Transfer 25 microliters of each compound from the row in the 1:10 dilution to the corresponding two rows on the 1:100 dilution plate changing tips before each transfer.
Addition of Viral SN123 to Plates
a. Thaw Sn123 in 37° C. water bath for approximately 10 minutes.
b. Dilute Sn123 1:16 by adding 1 ml of Sn123 to 15 ml of media A.
c. Add 50 microliters of Sn123 [1:16] to wells E1-H12 of plates 2-6 and to wells E1-H3 of plate 1.
Addition of Drugs to Plates
a. Add 50 microliters of the control and test drugs from the rows in the 1:100 dilution plates to the appropriate rows in the final plates (changing tips before each transfer). One row in the 1:100 plate will do 4 rows in the final plate. Leave A1 blank.
b. Incubate all plates 7 days at 37° C. 5% CO2.
c. Do Xtt protocol on day 7 as follows:
d. Preparation of Xtt/PMS Solution: (4 plate=20 ml) (6 plate=30 ml)
100 microliters [100 mM] PMS+4.9 ml PBS=PMS at [2 mM]
(2) Heat 500 ml of H2O in microwave for 5 minutes on high.
(3) Put 20 or 30 ml of phenol red RPMI in a 50 ml centrifuge tube.
(4) Put the RPMI in the beaker of hot water.
(5) Add 20 or 30 mg of XTT to the warmed up RPMI.

[2] = tested on: HIV-1 isolates IIIB and/or RF in MT-2 cells; test: SRI primary anti-HIV screen, MTT assay of inhibition of HIV-induced cell killing in MT2 cells; format: cell-based; conditions: MT2 cells
Source text: I. Primary Drug Screening of Anti-HIV Compounds at Southern Research Institute (SRI) (Results recorded in Table 1 are designated “SRI CEM (ng/ml)” or “SRI MT2 (ng/ml)”)
(§1) A. Principle of MTT Assay:
(§2) SRI has an established program for the primary antiviral analysis of compounds in microtiter assays which measures the ability of a selected compound to inhibit HIV-induced cell killing. This assay involves the conversion of the tetrazolium dye MTT to a colored formazan product by mitochondrial enzymes in metabolically active cells. This assay system is used at SRI to screen over 30,000 compounds per year. Briefly, the assay involves the infection of CEM or MT2 cells in round bottom 96-well plates. The compound of interest is added just prior to infection. Following 6 days of incubation at 37° C. the plates are stained with MTT. The results of the assay are quantitated spectrophotometrically on a Molecular Devices Vmax plate reader. The data are analyzed by linear regression utilizing an in-house software program to calculate antiviral activity (IC25, IC50, IC95) and toxicity (TC25, TC50, TC95) as well as other values.
(§3) Primary antiviral assays are routinely performed in CEM or MT-2 cells.
(§4) B. Standard Screening Assays in CEM and MT-2 Cells
(§5) 1. Compound dilution and delivery to the plates
Drugs are solubilized in the appropriate vehicle such as distilled water or DMSO if necessary. Latex gloves, lab coats and masks are used during all phases of the handling process to prevent exposure to potentially harmful agents. The drug is prepared at the appropriate concentration and stored at −20° C. until used by the screening laboratory. The first dilution of each compound is made in a dilution tube with medium to yield a concentration two-fold that of the highest test concentration. Sterile titer tubes are then used to make serial one half-log dilutions of each compound. Following drug dilution, the diluted compound is added to the appropriate well of a 96-well microtiter plate. […] When testing includes only six dilutions, two drugs can be assayed on a single microtiter plate. The drugs are added to the plate in a final volume of 100 microliters.
(§6) During the time the drug dilutions are prepared, cells are washed and counted. Viability is monitored by trypan blue dye exclusion and assays are not performed if the viability falls below 90%. Cells are maintained in an exponential growth phase and are split 1:2 on the day prior to assay to assure exponential growth rate.
(§7) For the primary screen, the cell lines utilized are CEM and MT-2. Unless otherwise indicated, the medium used is RPMI 1640 with 10% heat-inactivated fetal calf serum (FBS), glutamine and antibiotics.
(§8) Cells are propagated at 37° C. in an atmosphere of 5% CO2 in air. The virus employed for this work is HIV-1 isolates IIIB and/or RF, which are prepared by an acute infection process.
(§9) Briefly, virus-infected cells are pelleted on a daily basis beginning at three days post-infection until the virus has killed all of the cells in the culture. Reverse transcriptase activity and p24 ELISA are used to identify pools with the greatest amout of virus.
(§10) These 24-hour harvests are pooled, filtered and frozen at −90° C. Prior to use in the assay, the infectious pool of virus is titered on all available cell lines in order to determine the amount of virus required in the antiviral assay.
In general, pools produced by the acute infection method require the addition of one microliter of infectious virus per well resulting in the screening of drugs at a multiplicity of infection of 0.01. In this manner, enough virus is prepared and frozen to complete over one thousand microtiter plates, allowing the testing of up to two thousand compounds from a single stock of infectious virus. The use of a single stock of virus for a long period of testing has very favorable effects on the repeatability of the assay systems. […]

[3] = tested on: HIV-1 isolates IIIB and/or RF in CEM cells; test: SRI primary anti-HIV screen, MTT assay of inhibition of HIV-induced cell killing in CEM cells; format: cell-based; conditions: CEM cells
Experimental: as §1
as §2, with “This” for “SRI has an established program for the primary antiviral analysis of compounds in microtiter assays which measures the ability of a selected compound to inhibit HIV-induced cell killing. This”
as §3, §4, §5
Drugs are solubilized in the appropriate vehicle such as distilled water or DMSO if necessary. Latex gloves, lab coats and masks are used during all phases of the handling process to prevent exposure to potentially harmful agents. The drug is prepared at the appropriate concentration and stored at −20° C. until used by the screening laboratory. The first dilution of each compound is made in a dilution tube with medium to yield a concentration two-fold that of the highest test concentration. Sterile titer tubes are then used to make serial one half-log dilutions of each compound. Following drug dilution, the diluted compound is added to the appropriate well of a 96-well microtiter plate. Up to 12 dilutions can be assayed conveniently in triplicate on a single plate with all appropriate controls including cell control, virus control, toxicity control, drug color control, medium control and plastic (background) control. When testing includes only six dilutions, two drugs can be assayed on a single microtiter plate. The drugs are added to the plate in a final volume of 100 microliters.
as §6, §7, §8, §9, §10
In general, pools produced by the acute infection method require the addition of one microliter of infectious virus per well resulting in the screening of drugs at a multiplicity of infection of 0.01. In this manner, enough virus is prepared and frozen to complete over one thousand microtiter plates, allowing the testing of up to two thousand compounds from a single stock of infectious virus.
Virus infection of the CEM and MT-2 cells for the antiviral assay is carried out in a bulk infection process.

[4] = normalized to positive control (=1.0), * = a calculated average, read-out: Fluorescence Assay IC50 in ng/mL (converted)
[5] = value as run, 35B value of the same run in footnote or parentheses, read-out: Pandex IC50 ng/ml (converted)
[6] = normalized to positive control (=1.0), * = a calculated average
[7] = value as run, 35B value of the same run in footnote or parentheses

Compound: CC(C)(C)NC(=O)c1ccccc1CC(O)C(CSc1ccc2ccccc2c1)NC(=O)c1cccc(N)c1Br (stereo not drawn) [Example 45, [2′R-(2′R*,3′S*)]-N-t-Butyl-2-[2′-hydroxy-3′-naphth-2-ylthiomethyl-4′-aza-5′-oxo-5′-(2″-bromo-3″-aminophenyl)pentyl] benzamide]
- melting point: 110 to 112 °C
- IC50 (HIV-1 protease; [4]): 214 nM

Compound: Cc1c(N)cccc1C(=O)NC(CSc1ccc2ccccc2c1)C(O)Cc1ccccc1C(=O)NC(C)(C)C (stereo not drawn) [Example 42, [2′R-(2′R*,3′S*)]-N-t-Butyl-2-[2′-hydroxy-3′-naphth-2-ylthiomethyl-4′-aza-5′-oxo-5′-(2″-methyl-3″-aminophenyl)pentyl] benzamide]
- melting point: 105 to 106 °C
- IC50 (HIV-1 protease; [4]): 191 nM

Compound: CC(C)(C)NC(=O)c1ccccc1C[C@@H](O)[C@@H](CSc1ccc2ccccc2c1)NC(=O)c1ccnc2ccccc12 [Example 66, [2′R-(2′R*,3′S*)]-N-t-Butyl-2-[2′-hydroxy-3′-naphth-2-ylthiomethyl-4′-aza-5′-oxo-5′-(quinolin-4″-yl)pentyl] benzamide]
- melting point: 89 to 92 °C
- IC50 (HIV-1 protease; [4]): 474 nM

Compound: CC(C)(C)NC(=O)c1ccccc1CC(O)C(CSc1ccc2ccccc2c1)NC(=O)c1ccc(N)cc1Cl (stereo not drawn) [Example 71, [2′R-(2′R*,3′S*)]-N-t-Butyl-2-[2′-hydroxy-3′-naphth-2-ylthiomethyl-4′-aza-5′-oxo-5′-(2″-chloro-4″-aminophenyl)pentyl] benzamide]
- melting point: 102 to 104 °C
- IC50 (HIV-1 protease; [4]): 312 nM

Compound: CC(C)(C)NC(=O)c1ccccc1CC(O)C(CSc1ccc2ccccc2c1)NC(=O)c1cc(N)ccc1Cl (stereo not drawn) [Example 55, [2′R-(2′R*,3′S*)]-N-t-Butyl-2-[2′-hydroxy-3′-naphth-2-ylthiomethyl-4′-aza-5′-oxo-5′-(2″-chloro-5″-aminophenyl)pentyl] benzamide]
- melting point: 109 to 110 °C
- IC50 (HIV-1 protease; [4]): 194 nM

Compound: Cc1c(OP(=O)(O)O)cccc1C(=O)N[C@@H](Cc1ccccc1)[C@H](O)CN1C[C@H]2CCCC[C@H]2C[C@H]1C(=O)NC(C)(C)C (relative stereo) [Example 78, [3S-(3R*, 4aR*, 8aR*, 2′S*, 3′R*)]-2-[2′-Hydroxy-3′-phenylmethyl-4′-aza-5′-oxo-5′-(2″-methyl-3″-Hydroxyphenyl)pentyl]decahydroisoquinoline-3-N-t-butyl carboxamide 3″-dihydrogen phosphate]
- IC50 [1]: 8.64 nM
- IC90 [1]: 66.5 nM
- IC50 (HIV-1 protease; [5]): 3240 nM
- SRI MT2 IC50 [2]: 0.08 µg/mL

Compound: Cc1cnccc1C(=O)NC(CSc1ccccc1)C(O)CN1CCN(Cc2cccnc2)CC1C(=O)NC(C)(C)C (stereo not drawn) [Example 35, [2S-(2R*,2′S*,3′S*)]-1-[2′-Hydroxy-3′-phenylthiomethyl-4′-aza-5′-oxo-5′-(3″-methyl-pyrid-4″-yl)[pentyl]-4-(pyrid-3′″-ylmethyl)piperazine-2-N-t-butylcarboxamide]
- Fluorescence Assay IC50 (HIV-1 protease; [6]): 0.0317 µg/mL
- Pandex IC50 ng/ml (HIV-1 protease; [7]): 73^c ng/ml
- SRI MT2 IC50 [2]: 0.519 µg/mL and 0.368 µg/mL

Compound: CC(C)(C)NC(=O)C1CC2CCCCC2CN1CC(O)C(Cc1ccccc1)NC(=O)c1cccc(Cl)c1Cl (stereo not drawn) [Example 14, [3S-(3R*,4aR*,8aR*,2′S*,3′R*)]-2-[2′-Hydroxy-3′-phenylmethyl-4′-aza-5′-oxo-5′-(2″,3″-dichloro-phenyl)pentyl] decahydroisoquinoline-3-N-t-butylcarboxamide]
- Fluorescence Assay IC50 (HIV-1 protease; [6]): 0.101 µg/mL
- Pandex IC50 ng/ml (HIV-1 protease; [7]): 48.7^d ng/ml
- SRI MT2 IC50 [2]: 1.61 µg/mL and 1.29 µg/mL

Compound: CC(C)(C)NC(=O)[C@@H]1C[C@@H]2SCC[C@@H]2CN1C[C@@H](O)[C@H](CSc1ccccc1)NC(=O)C1CCS(=O)(=O)C1 (relative stereo) [Example 89, [6S-(6R*, 3aS*, 7aR*, 2′S*, 3′S*)]-2-[2′-Hydroxy-3′-phenylthiomethyl-4′-aza-5′-oxo-5′-(tetrahydrothieno-3″-yl-1″,1″-dioxide)pentyl]-octahydrothieno[3,2-c]pyridine-6-N-t-butyl carboxamide]
- IC50 (HIV-1 protease; [5]): 0.856 nM
- CEM IC95 [3]: 98 nM

Compound: Cc1c(OP(=O)(O)O)cccc1C(=O)N[C@@H](CSc1ccccc1)[C@H](O)CN1C[C@H]2CCCC[C@H]2C[C@H]1C(=O)NC(C)(C)C.Cl (relative stereo) [Example 80, [3S-(3R*, 4aR*, 8aR*, 2′S*, 3′S*)]-2-[2′-Hydroxy-3′-phenylthiomethyl-4′-aza-5′-oxo-5′-(2″-methyl-3″-Hydroxyphenyl)pentyl]-decahydroisoquinoline-3-N-t-butyl carboxamide 3″-Dihydrogen Phosphate Hydrochloride]
- IC50 [1]: 8.99 nM
- IC90 [1]: 27.9 nM
- Pandex % at 22 (HIV-1 protease; at 22 (ng/ml), wrapped cell): 0.3% at
- IC50 (HIV-1 protease; [5]): 5.85 nM

Compound: Cc1c(O)cccc1C(=O)N[C@@H](CSc1ccccc1)[C@H](O)CN1CCN(Cc2cccnc2)C[C@H]1C(=O)NC(C)(C)C [Example 19]
- IC50 [1]: 16.1 nM
- IC90 [1]: 42 nM
- IC50 (HIV-1 protease; [4]): 0.528 nM
- IC50 (HIV-1 protease; [5]): 0.693 nM

Compound: CC(C)(C)NC(=O)[C@@H]1CN(Cc2cccnc2)CCN1C[C@@H](O)[C@H](CSc1ccccc1)NC(=O)c1cccc2c1CCCN2 [Example 33, [3S-(2R*,2′S*,3′S*)]-1-[2′-Hydroxy-3′-phenylthiomethyl-4′-aza-5′-oxo-5′-(1″,2″,3″,4″-tetrahydroquinolin-5″-yl)pentyl]-4-(pyrid-3′″-ylmethyl)piperazine-2N-t-butylcarboxamide]
- IC50 [1]: 39.5 nM
- IC90 [1]: 200 nM
- IC50 (HIV-1 protease; [4]): 2.69 nM
- IC50 (HIV-1 protease; [5]): 3.17 nM
